Values quoted from earlier work as cited in patent US20100152480A1 (priority 2008, published 2010).

Experiments:
[1] = test system: gram negative bacteria (Alcaligenes faecalis, Bordetella bronchiseptica, Citrobacter freundii, Citrobacter intermedium, Enterobacter aerogenes, Escherichia …); conditions: listed gram negative species; known from prior art
[2] = 20° C.
[3] = test system: gram positive bacteria (Arthrobacter oxydans, Bacillus cereus var mycoide, Bacillus subtilis, Bacillus megaterium, Clostridium perfringens, Listeria …); conditions: listed gram positive species; known from prior art
[4] = test system: moulds and yeast (Aspergillus niger, Aureobasidium pullulans, Cladosporium cladosporioides, Gliocadium virens, Chaetonium globosum, Penicillium chrysogenum …); conditions: listed moulds and yeasts; known from prior art

## ethyl-Na-dodecanoyl-Larginate HCl [Ethyl lauroyl arginate]
[1]
  effectiveness against gram negative bacteria: effective
[2]
  solubility in water: greater than 247 g/kg
[3]
  effectiveness against gram positive bacteria: effective
[4]
  effectiveness against moulds and yeast: effective
